Values of other authors as cited in patent US12026655B2, “Systems and methods for post-harvest crop quality management” (priority 2017, dated 2024).
Where two headings read alike, the source gives them in different places.

Assays:
Rhyzopertha dominica = details: e(x, t)>1 means at least 99.9% of the insect population killed
[1] = test system: tobacco moth and susceptible cigarette beetle
[2] = test system: resistant cigarette beetle
[3] = tobacco temperature 16-20 °C (61-68 °F), 300 ppm phosphine at the bale/case centre

In the case of `P` [phosphine], the “empirical constant a1 of the extinction indicator function e(x, t)” value (Rhyzopertha dominica) is listed as 4.04, the “empirical constant a2 of the extinction indicator function e(x, t)” value (Rhyzopertha dominica) is listed as 0.6105 and the “Minimum Exposure Time to achieve 100% control of all development stages” value [1, 3] is listed as 6 days. The “Minimum Exposure Time to achieve 100% control of all development stages” value ([1]; tobacco temperature >20 °C (>68 °F), 200 ppm phosphine at the bale/case centre) was 4 days, the “Minimum Exposure Time to achieve 100% control of all development stages” value [2, 3] was 12 days and the “Minimum Exposure Time to achieve 100% control of all development stages” value ([2]; tobacco temperature 20-25 °C (68-77 °F), 300 ppm phosphine at the bale/case centre) was 12 days. For the same compound, the “Minimum Exposure Time to achieve 100% control of all development stages” value ([2]; tobacco temperature 20-25 °C (68-77 °F), 700 ppm phosphine at the bale/case centre) was 10 days, the “Minimum Exposure Time to achieve 100% control of all development stages” value ([2]; tobacco temperature >25 °C (>77 °F), 300 ppm phosphine at the bale/case centre) was 12 days and the “Minimum Exposure Time to achieve 100% control of all development stages” value ([2]; tobacco temperature >25 °C (>77 °F), 600 ppm phosphine at the bale/case centre) was 6 days.
